Laboratory results as given in article PMC6013238, “Development of novel NEMO-binding domain mimetics for inhibiting IKK/NF-κB activation” (PLoS Biology, 2018).
“And” between values parts separate entries of the source, which are not always exact repeats. Identical values can stand only once.

Columns and labels:
GST-NEMO and FLAG-IKKβ = biological target: T1, GST-NEMO and FLAG-IKKβ (Homo sapiens, UniProt Q9Y6K9); assay: IKKβ-NEMO binding assay (GST pull-down, recombinant proteins); details: at 12.5 μM; 15 nM each protein
T1 construct: Recombinant full-length NEMO tagged with GST at the N-terminus; purchased SignalChem (GST-NEMO); Origene (IKKβ-FLAG)
T1 sequence (Q9Y6K9 whole entry): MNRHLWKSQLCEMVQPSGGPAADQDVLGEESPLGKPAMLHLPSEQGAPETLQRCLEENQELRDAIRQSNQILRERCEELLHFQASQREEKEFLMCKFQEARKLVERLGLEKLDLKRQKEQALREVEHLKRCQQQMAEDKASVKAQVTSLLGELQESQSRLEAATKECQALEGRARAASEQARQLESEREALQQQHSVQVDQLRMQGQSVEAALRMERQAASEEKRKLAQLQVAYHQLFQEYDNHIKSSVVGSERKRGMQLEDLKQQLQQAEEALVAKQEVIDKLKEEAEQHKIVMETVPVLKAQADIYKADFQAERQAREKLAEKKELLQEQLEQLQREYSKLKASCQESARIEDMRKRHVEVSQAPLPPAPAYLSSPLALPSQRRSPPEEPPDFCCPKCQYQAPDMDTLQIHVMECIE
Procedure: To determine whether the novel NBD mimetics target the NEMO-IKKβ interaction in vivo, co-immunoprecipitations were performed using extracts from Raw 264.7 macrophages (Fig 5A). […] No interaction between NEMO and TNF receptor-associated factor 2 (TRAF2) or IκBα was observed under these conditions. […] The levels of phosphorylated IKK complex, IκBα, and p65 in response to TNF-α and LPS were all reduced by SR12343 (Fig 5D & 5E). […] However, there were no changes in the levels of phospho-c-Jun N-terminal kinase (p-JNK), p-p38MAPK, total JNK, and p38MAPK by treatment with SR12343 (150 μM) in response to TNF-α or LPS stimulation (Fig 5G & 5H). […]
(A) Co-IP analysis detecting the IKKβ/NEMO interaction. […] NEMO-binding products were then analyzed for levels of IKKβ, IKKα, TRAF2, and IκBα (negative control), and levels of NEMO were used as a loading control (left panel). […] The levels of IKKβ-FLAG binding to GST-NEMO were determined by western blot analysis with GST-NEMO used as a loading control. […] Cell lysates were analyzed for activity of the IKK/NF-κB signaling pathway including activation of IKK complex, IκBα, and p65. […] Cell lysates were harvested and analyzed for activation of noncanonical NF-κB signaling, the processing of p100 to p52. […]

mdx mice = assay: Chronic treatment of mdx mice, CD68 immunostaining (macrophages); assay type: in vivo, mouse; details: for CD68+ cells, number of cells per myofiber: SR12343 30 mg/kg 4 wk, single measures and ave, 30 mg/kg
Procedure: To determine whether SR12343 and SR12460 improve muscle pathology, TA muscle was stained with hematoxylin–eosin to assess inflammatory infiltration, necrosis, central nucleation, and fibrosis. […] In addition, Masson trichrome stain was conducted to further measure muscle fibrosis. Chronic treatment with SR12343 reduced muscle fibrosis (blue) in diaphragm and TA muscle tissues in comparison to control group (Fig 8A & 8B). To further quantitate the extent of inflammation in mdx muscle tissues, diaphragm and TA muscle were immunostained for cluster of differentiation 68 (CD68), a macrophage marker. Treatment with SR12343 reduced the number of CD68^+ cells by almost 50% per myofiber in both diaphragm and TA tissues (Fig 8A & 8B). […] To quantify the average fiber size in an unbiased way, TA muscle was stained with laminin to outline myofibers, and Feret diameter of all myocytes was quantitated in a whole muscle section.
Fig 8 Chronic treatment with NBD mimetics reduces muscle fibrosis by decreasing macrophage infiltration in mdx mice. (A, B) Trichrome and CD68 staining of (A) diaphragm and (B) TA muscle from 7-wk-old, SR12343-treated or -untreated mdx mice. CD68 (red): marker of tissue macrophage; utrophin (green): stain for myofiber; DAPI (blue): nuclei. Trichrome images were taken at the magnification of 4× for TA and 10× for diaphragm. IHC images were taken at 10× for TA and 20× for diaphragm. Representative images were shown for each treatment group. Data were shown as mean +/− SEM. *P < 0.05; **P < 0.01; ***P < 0.001. Underlying data can be found in S1 Data. CD68, cluster of differentiation 68; IHC, immunohistochemistry; NBD, NEMO-binding domain; NEMO, NF-κB essential modulator; TA, tibialis anterior.
The frozen tissue sections were fixed with 4% paraformaldehyde for 1 h and incubated with 1% BSA for blocking. The primary antibodies CD68 (Abcam, Cambridge, MA) and utrophin (Santa Cruz) were applied at 1:200 for 2 h. The secondary antibodies Alexa Fluor 594 and Alexa Fluor 488 were then applied at 1:400 for 1 h. DAPI (1;1000) solution was used to stain the cell nucleus. All the processes were performed at room temperature.

**Q.** How did the “Disruption of interaction between GST-NEMO and FLAG-IKKβ” value (GST-NEMO and FLAG-IKKβ) turn out when `O=C(CNc1ccc(Cl)cn1)NCCc1cccc(Br)c1` [SR12343] was run?
**A.** Its value is “able to disrupt”.

**Q.** And the “CD68+ cells, number of cells per myofiber” value (mdx mice; Fig 8A, diaphragm muscle)?
**A.** Its value is 1.156 and 1.07 and 1.196.

**Q.** What about the “CD68+ cells, number of cells per myofiber” value (mdx mice; Fig 8A, diaphragm muscle, mean) of the same compound?
**A.** Its value is 1.14.

**Q.** And the “CD68+ cells, number of cells per myofiber” value (mdx mice; Fig 8B, TA muscle)?
**A.** Its value is 0.646 and 0.5862 and 0.6154.

**Q.** And the “CD68+ cells, number of cells per myofiber” value (mdx mice; Fig 8B, TA muscle, mean)?
**A.** The value was 0.6159.

**Q.** What about the “Reduction of number of CD68+ cells per myofiber” value (mdx mice; diaphragm and TA tissues) of the same compound?
**A.** Its value is about 50%.
